Laboratory results reported in patent US20070117743A1, “New antitumoral compounds” (priority 2003, published 2007).
Where two headings read alike, the source gives them in different places.

What was measured:
Assay type in all cases: cell-based, human
LNCaP = experiment: SRB colorimetric assay of cell growth and viability, LNCaP; details: 48 hours exposure; for CC50: read-out: LC50 LN-caP
HT-29 = experiment: SRB colorimetric assay of cell growth and viability, HT-29; details: 48 hours exposure; for GI50: read-out: GI50 HT-29; for CC50: read-out: LC50 HT-29
IGROV-1 = experiment: SRB colorimetric assay of cell growth and viability, IGROV-1; details: 48 hours exposure
IGROV-ET = experiment: SRB colorimetric assay of cell growth and viability, IGROV-ET; details: 48 hours exposure; for CC50: read-out: LC50 IGROV-ET
HeLa-APL = experiment: SRB colorimetric assay of cell growth and viability, HeLa-APL; details: 48 hours exposure; for CC50: read-out: LC50 HELA-APL
HeLa = experiment: SRB colorimetric assay of cell growth and viability, HeLa; details: 48 hours exposure; for CC50: read-out: LC50 HELA
LoVo = experiment: SRB colorimetric assay of cell growth and viability, LoVo; details: 48 hours exposure; for CC50: read-out: LC50 LOVO
PANC-1 = experiment: SRB colorimetric assay of cell growth and viability, PANC-1; details: 48 hours exposure; for CC50: read-out: LC50 PANC-1
LoVo-Dox = experiment: SRB colorimetric assay of cell growth and viability, LoVo-Dox; details: 48 hours exposure; for CC50: read-out: LC50 LOVO-DOX
Method in brief: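 Here, cells grow drug-free for 18 h, then receive sample dilutions from 10 down to 10^−8 μg/mL for 48 h at 37° C. Protein-bound SRB is solubilized in Tris and quantified at 490 nm.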

A-549 = experiment: SRB colorimetric assay of cell growth and viability, A-549; details: 48 hours exposure; for GI50: read-out: GI50 A-549; for CC50: read-out: LC50 A-549
DU-145 = experiment: SRB colorimetric assay of cell growth and viability, DU-145; details: 48 hours exposure
SK-BR-3 = experiment: SRB colorimetric assay of cell growth and viability, SK-BR-3; details: 48 hours exposure
SK-MEL-28 = experiment: SRB colorimetric assay of cell growth and viability, SK-MEL-28; details: 48 hours exposure; for CC50: read-out: LC50 MEL-28
K-562 = experiment: SRB colorimetric assay of cell growth and viability, K-562; details: 48 hours exposure; for CC50: read-out: LC50 K-562

## C/C=C1\NC(=O)[C@@H](Cc2ccccc2)NC(=O)[C@H](C(C)C)NC(=O)[C@H]([C@H](C)CC)NC(=O)[C@@H](NC(=O)[C@@H](NC(=O)[C@@H](CCCN)NC(=O)[C@@H]2CCCN2C(=O)[C@@H](NC(=O)[C@H](NC(=O)[C@H](NC(=O)[C@@H](NC(=O)CCCC(C)C)C(C)C)[C@H](C)O)C(C)C)C(C)C)[C@H](C)CC)[C@H](C)OC(=O)[C@@H](C(C)C)NC1=O [Compound 69, [D-Val^1, D-Phe^3, Val^4, alo-Ile^5, alo-Thr^6, alo-Ile^7, D-Orn^8, Pro^9, Val^10, D-Val^11, D-Thr^12, Val^13] KF]
LNCaP; SRB
  TGI LN-caP: 6.77E−06 Molar
  CC50: ≥ 6770 nM
LNCaP; SRB, read-out: GI50 LN-caP
  GI50: 2350 nM
HT-29; SRB
  TGI HT-29: 6.77E−06 Molar
  GI50: ≥ 6770 nM
  CC50: ≥ 6770 nM
IGROV-1; SRB
  GI50: 4370 nM
  LC50 (concentration causing 50% net cell killing): ≥ 6770 nM
  TGI IGROV: 6.77E−06 Molar
IGROV-ET; SRB
  GI50: ≥ 6770 nM
  TGI IGROV-ET: 6.77E−06 Molar
  CC50: ≥ 6770 nM
HeLa-APL; SRB
  GI50: ≥ 6770 nM
  TGI HELA-APL: 6.77E−06 Molar
  CC50: ≥ 6770 nM
HeLa; SRB
  GI50: ≥ 6770 nM
  TGI HELA: 6.77E−06 Molar
  CC50: ≥ 6770 nM
LoVo; SRB
  GI50: ≥ 6770 nM
  TGI LOVO: 6.77E−06 Molar
  CC50: ≥ 6770 nM
PANC-1; SRB
  GI50: ≥ 6770 nM
  TGI PANC-1: 6.77E−06 Molar
  CC50: ≥ 6770 nM
LoVo-Dox; SRB
  GI50: ≥ 6770 nM
  TGI LOVO-DOX: 6.77E−06 Molar
  CC50: ≥ 6770 nM
A-549; SRB
  TGI A-549: 6.77E−06 Molar
  GI50: ≥ 6770 nM
  CC50: ≥ 6770 nM
DU-145; SRB
  GI50: ≥ 6770 nM
  LC50 (concentration causing 50% net cell kill): ≥ 6770 nM
  TGI DU-145: 6.77E−06 Molar
SK-BR-3; SRB
  GI50: 6720 nM
  LC50: ≥ 6770 nM
  TGI SK-BR-3: 6.77E−06 Molar
SK-MEL-28; SRB
  GI50: ≥ 6770 nM
  TGI MEL-28: 6.77E−06 Molar
  CC50: ≥ 6770 nM
K-562; SRB
  GI50: ≥ 6770 nM
  TGI K-562: 6.77E−06 Molar
  CC50: ≥ 6770 nM

## C/C=C1\NC(=O)[C@H](Cc2ccccc2Cl)NC(=O)[C@@H](C(C)C)NC(=O)[C@@H]([C@@H](C)CC)NC(=O)[C@H](NC(=O)[C@H](NC(=O)[C@H](CCCN)NC(=O)[C@H]2CCCN2C(=O)[C@H](NC(=O)[C@@H](NC(=O)[C@@H](NC(=O)[C@H](NC(=O)CCCC(C)C)C(C)C)[C@@H](C)O)C(C)C)C(C)C)[C@@H](C)CC)[C@@H](C)OC(=O)[C@H](C(C)C)NC1=O [Compound 81, [Phe(2-Cl)^3]-KF]
LNCaP; LN-caP
  GI50: 75.6 nM
  TGI LN-caP: 3.87E−07 Molar
  CC50: 1270 nM
HT-29; HT-29
  TGI HT-29: 2.23E−07 Molar
  GI50: 102 nM
  CC50: 543 nM
IGROV-1; IGROV
  GI50: 86.7 nM
  LC50 (concentration causing 50% net cell killing): 596 nM
  TGI IGROV: 2.09E−07 Molar
IGROV-ET; IGROV-ET
  GI50: 100 nM
  TGI IGROV-ET: 2.40E−07 Molar
  CC50: 639 nM
HeLa-APL; HELA-APL
  GI50: 342 nM
  TGI HELA-APL: 7.87E−07 Molar
  CC50: 1840 nM
HeLa; HELA
  GI50: 199 nM
  TGI HELA: 6.33E−07 Molar
  CC50: 1440 nM
LoVo; LOVO
  GI50: 89.2 nM
  TGI LOVO: 1.72E−07 Molar
  CC50: 445 nM
PANC-1; PANC-1
  GI50: 1400 nM
  TGI PANC-1: 1.84E−06 Molar
  CC50: 1840 nM
LoVo-Dox; LOVO-DOX
  GI50: 70.1 nM
  TGI LOVO-DOX: 1.20E−07 Molar
  CC50: 369 nM
A-549; A-549
  TGI A-549: 9.04E−07 Molar
  GI50: 457 nM
  CC50: 1570 nM
DU-145; DU-145
  GI50: 242 nM
  LC50 (concentration causing 50% net cell kill): 1210 nM
  TGI DU-145: 6.83E−07 Molar
SK-BR-3; SK-BR-3
  GI50: 61.2 nM
  LC50: 664 nM
  TGI SK-BR-3: 1.18E−07 Molar
SK-MEL-28; MEL-28
  GI50: 362 nM
  TGI MEL-28: 8.73E−07 Molar
  CC50: 1680 nM
K-562; K-562
  GI50: 1840 nM
  TGI K-562: 1.84E−06 Molar
  CC50: 1840 nM

## C/C=C1\NC(=O)[C@H](Cc2ccccc2)NC(=O)[C@@H](C(C)C)NC(=O)[C@@H]([C@@H](C)CC)NC(=O)[C@H](NC(=O)[C@H](NC(=O)[C@H](CCCN)NC(=O)[C@H]2CCCN2C(=O)[C@H](NC(=O)[C@@H](NC(=O)[C@@H](NC(=O)[C@H](NC(=O)CC[C@@H](C)CC)C(C)C)[C@@H](C)OC(=O)C(F)(F)F)C(C)C)C(C)C)[C@@H](C)CC)[C@@H](C)OC(=O)[C@H](C(C)C)NC1=O [Compound 94, [Thr(OTfa)^12, 4(S)MeHex^14]-Kahalalide F]
LNCaP; SRB
  TGI LN-caP: 4.92E−06 Molar
  CC50: 6350 nM
LNCaP; SRB, read-out: GI50 LN-caP
  GI50: 1650 nM
HT-29; SRB
  TGI HT-29: 3.43E−07 Molar
  GI50: 163 nM
  CC50: 1140 nM
IGROV-1; SRB
  GI50: 313 nM
  LC50 (concentration causing 50% net cell killing): 3050 nM
  TGI IGROV: 6.11E−07 Molar
IGROV-ET; SRB
  GI50: 208 nM
  TGI IGROV-ET: 4.00E−07 Molar
  CC50: 1580 nM
HeLa-APL; SRB
  GI50: 693 nM
  TGI HELA-APL: 1.65E−06 Molar
  CC50: 3920 nM
HeLa; SRB
  GI50: 413 nM
  TGI HELA: 1.16E−06 Molar
  CC50: 3020 nM
LoVo; SRB
  GI50: 168 nM
  TGI LOVO: 3.26E−07 Molar
  CC50: 632 nM
PANC-1; SRB
  GI50: 2860 nM
  TGI PANC-1: 6.35E−06 Molar
  CC50: 6350 nM
LoVo-Dox; SRB
  GI50: 162 nM
  TGI LOVO-DOX: 3.55E−07 Molar
  CC50: 1320 nM
A-549; SRB
  TGI A-549: 2.28E−06 Molar
  GI50: 1120 nM
  CC50: 4660 nM
DU-145; SRB
  GI50: 718 nM
  LC50 (concentration causing 50% net cell kill): 3180 nM
  TGI DU-145: 1.51E−06 Molar
SK-BR-3; SRB
  GI50: 226 nM
  LC50: 625 nM
  TGI SK-BR-3: 3.75E−07 Molar
SK-MEL-28; SRB
  GI50: 743 nM
  TGI MEL-28: 1.50E−06 Molar
  CC50: 3010 nM
K-562; SRB
  GI50: 1840 nM
  TGI K-562: 3.75E−06 Molar
  CC50: 6350 nM

## C/C=C1\NC(=O)[C@H](Cc2ccccc2)NC(=O)[C@@H](C(C)C)NC(=O)[C@@H]([C@@H](C)CC)NC(=O)[C@H](NC(=O)[C@H](NC(=O)[C@H](CCCNC(=O)C(F)(F)F)NC(=O)[C@H]2CCCN2C(=O)[C@H](NC(=O)[C@@H](NC(=O)[C@@H](NC(=O)[C@H](NC(=O)CC[C@@H](C)CC)C(C)C)[C@@H](C)OC(=O)C(F)(F)F)C(C)C)C(C)C)[C@@H](C)CC)[C@@H](C)OC(=O)[C@H](C(C)C)NC1=O [Compound 95, [Orn(N^δTfa)^8,Thr(OTfa)^12, 4(S)MeHex^14]-Kahalalide F]
LNCaP; SRB
  TGI LN-caP: 5.99E−06 Molar
  CC50: 5990 nM
LNCaP; SRB, read-out: GI50 LN-caP
  GI50: 1700 nM
HT-29; SRB
  TGI HT-29: 1.93E−07 Molar
  GI50: 86.2 nM
  CC50: 432 nM
IGROV-1; SRB
  GI50: 178 nM
  LC50 (concentration causing 50% net cell killing): 550 nM
  TGI IGROV: 3.13E−07 Molar
IGROV-ET; SRB
  GI50: 219 nM
  TGI IGROV-ET: 3.77E−07 Molar
  CC50: 916 nM
HeLa-APL; SRB
  GI50: 617 nM
  TGI HELA-APL: 1.52E−06 Molar
  CC50: 3740 nM
HeLa; SRB
  GI50: 162 nM
  TGI HELA: 3.06E−07 Molar
  CC50: 579 nM
LoVo; SRB
  GI50: 125 nM
  TGI LOVO: 2.34E−07 Molar
  CC50: 437 nM
PANC-1; SRB
  GI50: 3580 nM
  TGI PANC-1: 5.99E−06 Molar
  CC50: 5990 nM
LoVo-Dox; SRB
  GI50: 124 nM
  TGI LOVO-DOX: 2.41E−07 Molar
  CC50: 471 nM
A-549; SRB
  TGI A-549: 2.29E−06 Molar
  GI50: 1150 nM
  CC50: 4550 nM
DU-145; SRB
  GI50: 892 nM
  LC50 (concentration causing 50% net cell kill): 3360 nM
  TGI DU-145: 1.73E−06 Molar
SK-BR-3; SRB
  GI50: 73.1 nM
  LC50: 520 nM
  TGI SK-BR-3: 1.95E−07 Molar
SK-MEL-28; SRB
  GI50: 1030 nM
  TGI MEL-28: 1.84E−06 Molar
  CC50: 3280 nM
K-562; SRB
  GI50: 3570 nM
  TGI K-562: 5.99E−06 Molar
  CC50: 5990 nM
